# In ChEMBL document CHEMBL3885861, “Open TG-GATES”:
# Species on record: Rattus norvegicus
# Test: Open TG-GATES - Regimen: Daily Repeat
# Type: toxicity, organism-based, Sprague-Dawley
# Set-up: regimen Daily Repeat, gender Male, age 6 weeks
# Conditions: in vivo, po, route gavage; for APTT / Bas / Eos / Fbg / Hb / Ht / Lym / MCHC / MCV / Mono / Neu / PT / Plat / RBC / Ret / WBC: tissue Blood; for KIDNEY_L / KIDNEY_R / KIDNEY_TOTAL: tissue Kidney; for LIVER: tissue Liver; for ALP / ALT / AST / CRE / DBIL / GLC / IP / K / LDH / Na / PL / RALB / TBIL / TC / TG / TP / gamma-GTP: tissue Plasma
# [1] = 0 mg/kg, 72 h, dose level Control, time 3 day
# [2] = 0 mg/kg, […], dose level Control, time 7 day
# [3] = 0 mg/kg, […], dose level Control, time 14 day
# [4] = 0 mg/kg, […], dose level Control, time 28 day
# [5] = 60 mg/kg, 72 h, dose level Low, time 3 day
# [6] = 60 mg/kg, […], dose level Low, time 7 day
# [7] = 60 mg/kg, […], dose level Low, time 14 day
# [8] = 60 mg/kg, […], dose level Low, time 28 day
structure (smiles),measurement,setting,value
O=C1NC(=O)C(c2ccccc2)(c2ccccc2)N1 [PHENYTOIN],TERMINAL_BW,[1],217.7 g
same,APTT,[1],21.2 s
same,Bas,[1],0%
same,Eos,[1],0.8%
same,Fbg,[1],301.8 mg/dL
same,Hb,[1],13.3 g/dL
same,Ht,[1],39%
same,Lym,[1],81.2%
same,MCHC,[1],34.1%
same,MCV,[1],64.2 fL
same,Mono,[1],2.4%
same,Neu,[1],15.2%
same,PT,[1],16 s
same,Plat,[1],126.3 x10_4/uL
same,RBC,[1],608.6 x10_4/ul
same,Ret,[1],7.4%
same,WBC,[1],73.8 x10_2/uL
same,KIDNEY_L,[1],1 g
same,KIDNEY_R,[1],1 g
same,KIDNEY_TOTAL,[1],1.9 g
same,LIVER,[1],10.1 g
same,ALP,[1],1688.4 IU/L
same,ALT,[1],46.8 IU/L
same,AST,[1],71 IU/L
same,CRE,[1],0.1 mg/dL
same,DBIL,[1],0 mg/dL
same,GLC,[1],192.6 mg/dL
same,IP,[1],7.6 mg/dL
same,K,[1],4.1 meq/L
same,LDH,[1],178.6 IU/L
same,Na,[1],143 meq/L
same,PL,[1],141.6 mg/dL
same,RALB,[1],3.1 g/dL
same,TBIL,[1],0.018 mg/dL
same,TC,[1],73.4 mg/dL
same,TG,[1],84 mg/dL
same,TP,[1],5.7 g/dL
same,gamma-GTP,[1],1 IU/L
same,TERMINAL_BW,[2],247 g
same,TERMINAL_BW,[3],296.2 g
same,TERMINAL_BW,[4],378.5 g
same,APTT,[2],20.8 s
same,Bas,[2],0%
same,Eos,[2],0.4%
same,Fbg,[2],300.4 mg/dL
same,Hb,[2],13.4 g/dL
same,Ht,[2],39.2%
same,Lym,[2],82.2%
same,MCHC,[2],34.2%
same,MCV,[2],62.4 fL
same,Mono,[2],2.4%
same,Neu,[2],13.6%
same,PT,[2],16 s
same,Plat,[2],125.6 x10_4/uL
same,RBC,[2],628 x10_4/ul
same,Ret,[2],5.6%
same,WBC,[2],113.7 x10_2/uL
same,APTT,[3],21.7 s
same,Bas,[3],0%
same,Eos,[3],1%
same,Fbg,[3],290.6 mg/dL
same,Hb,[3],14.1 g/dL
same,Ht,[3],40.9%
same,Lym,[3],81.4%
same,MCHC,[3],34.4%
same,MCV,[3],59.2 fL
same,Mono,[3],2.2%
same,Neu,[3],14.8%
same,PT,[3],16.5 s
same,Plat,[3],124.2 x10_4/uL
same,RBC,[3],690 x10_4/ul
same,Ret,[3],4.6%
same,WBC,[3],135.4 x10_2/uL
same,APTT,[4],23.3 s
same,Bas,[4],0%
same,Eos,[4],1%
same,Fbg,[4],307.4 mg/dL
same,Hb,[4],15.3 g/dL
same,Ht,[4],42.8%
same,Lym,[4],83.4%
same,MCHC,[4],35.7%
same,MCV,[4],58.7 fL
same,Mono,[4],1.6%
same,Neu,[4],13.4%
same,PT,[4],15.8 s
same,Plat,[4],116.4 x10_4/uL
same,RBC,[4],728.8 x10_4/ul
same,Ret,[4],3.1%
same,WBC,[4],147.1 x10_2/uL
same,KIDNEY_L,[2],1 g
same,KIDNEY_R,[2],1 g
same,KIDNEY_TOTAL,[2],2.1 g
same,KIDNEY_L,[3],1.2 g
same,KIDNEY_R,[3],1.2 g
same,KIDNEY_TOTAL,[3],2.4 g
same,KIDNEY_L,[4],1.3 g
same,KIDNEY_R,[4],1.3 g
same,KIDNEY_TOTAL,[4],2.6 g
same,LIVER,[2],11.2 g
same,LIVER,[3],12.7 g
same,LIVER,[4],15.6 g
same,ALP,[2],1443 IU/L
same,ALT,[2],34.8 IU/L
same,AST,[2],65 IU/L
same,CRE,[2],0.2 mg/dL
same,DBIL,[2],0.004 mg/dL
same,GLC,[2],197.2 mg/dL
same,IP,[2],7.7 mg/dL
same,K,[2],4.6 meq/L
same,LDH,[2],197 IU/L
same,Na,[2],141.6 meq/L
same,PL,[2],140 mg/dL
same,RALB,[2],2.9 g/dL
same,TBIL,[2],0.024 mg/dL
same,TC,[2],67.4 mg/dL
same,TG,[2],131.4 mg/dL
same,TP,[2],5.6 g/dL
same,gamma-GTP,[2],0.8 IU/L
same,ALP,[3],1493.2 IU/L
same,ALT,[3],40 IU/L
same,AST,[3],63 IU/L
same,CRE,[3],0.2 mg/dL
same,DBIL,[3],0 mg/dL
same,GLC,[3],199.4 mg/dL
same,IP,[3],7.2 mg/dL
same,K,[3],4.3 meq/L
same,LDH,[3],136.4 IU/L
same,Na,[3],141.4 meq/L
same,PL,[3],147.4 mg/dL
same,RALB,[3],3 g/dL
same,TBIL,[3],0.012 mg/dL
same,TC,[3],68.4 mg/dL
same,TG,[3],154 mg/dL
same,TP,[3],5.6 g/dL
same,gamma-GTP,[3],1.8 IU/L
same,ALP,[4],1238 IU/L
same,ALT,[4],38.8 IU/L
same,AST,[4],61.8 IU/L
same,CRE,[4],0.3 mg/dL
same,DBIL,[4],0.004 mg/dL
same,GLC,[4],189.6 mg/dL
same,IP,[4],6.3 mg/dL
same,K,[4],3.9 meq/L
same,LDH,[4],151.4 IU/L
same,Na,[4],142.4 meq/L
same,PL,[4],139.6 mg/dL
same,RALB,[4],3 g/dL
same,TBIL,[4],0.022 mg/dL
same,TC,[4],67.8 mg/dL
same,TG,[4],143.4 mg/dL
same,TP,[4],6.1 g/dL
same,gamma-GTP,[4],1.2 IU/L
same,TERMINAL_BW,[5],222.2 g
same,APTT,[5],21.7 s
same,Bas,[5],0%
same,Eos,[5],0.6%
same,Fbg,[5],311.4 mg/dL
same,Hb,[5],13 g/dL
same,Ht,[5],38.1%
same,Lym,[5],81.6%
same,MCHC,[5],34.1%
same,MCV,[5],65.7 fL
same,Mono,[5],1.4%
same,Neu,[5],15.2%
same,PT,[5],15.7 s
same,Plat,[5],130.4 x10_4/uL
same,RBC,[5],581.8 x10_4/ul
same,Ret,[5],7.7%
same,WBC,[5],82.9 x10_2/uL
same,KIDNEY_L,[5],1 g
same,KIDNEY_R,[5],1 g
same,KIDNEY_TOTAL,[5],2 g
same,LIVER,[5],10.7 g
same,ALP,[5],1528 IU/L
same,ALT,[5],38 IU/L
same,AST,[5],65.8 IU/L
same,CRE,[5],0.1 mg/dL
same,DBIL,[5],0 mg/dL
same,GLC,[5],185.4 mg/dL
same,IP,[5],7.5 mg/dL
same,K,[5],4.3 meq/L
same,LDH,[5],213.4 IU/L
same,Na,[5],143 meq/L
same,PL,[5],156 mg/dL
same,RALB,[5],3.1 g/dL
same,TBIL,[5],0.01 mg/dL
same,TC,[5],81.4 mg/dL
same,TG,[5],104.2 mg/dL
same,TP,[5],5.8 g/dL
same,gamma-GTP,[5],1.4 IU/L
same,TERMINAL_BW,[6],250.5 g
same,TERMINAL_BW,[7],308.9 g
same,TERMINAL_BW,[8],366.2 g
same,APTT,[6],22.8 s
same,Bas,[6],0%
same,Eos,[6],1%
same,Fbg,[6],314.8 mg/dL
same,Hb,[6],13.7 g/dL
same,Ht,[6],40.7%
same,Lym,[6],80%
same,MCHC,[6],33.6%
same,MCV,[6],62.6 fL
same,Mono,[6],2.6%
same,Neu,[6],15.8%
same,PT,[6],15.6 s
same,Plat,[6],124.8 x10_4/uL
same,RBC,[6],650.8 x10_4/ul
same,Ret,[6],6.1%
same,WBC,[6],113.1 x10_2/uL
same,APTT,[7],22.6 s
same,Bas,[7],0%
same,Eos,[7],0.8%
same,Fbg,[7],277.4 mg/dL
same,Hb,[7],13.9 g/dL
same,Ht,[7],40.8%
same,Lym,[7],80.6%
same,MCHC,[7],34.2%
same,MCV,[7],60.8 fL
same,Mono,[7],2.2%
same,Neu,[7],15.6%
same,PT,[7],16.2 s
same,Plat,[7],104.4 x10_4/uL
same,RBC,[7],670.4 x10_4/ul
same,Ret,[7],5%
same,WBC,[7],136.7 x10_2/uL
same,APTT,[8],22.8 s
same,Bas,[8],0%
same,Eos,[8],0.8%
same,Fbg,[8],298.8 mg/dL
same,Hb,[8],15.5 g/dL
same,Ht,[8],43.8%
same,Lym,[8],86.8%
same,MCHC,[8],35.5%
same,MCV,[8],57.3 fL
same,Mono,[8],1.8%
same,Neu,[8],10%
same,PT,[8],16 s
same,Plat,[8],107 x10_4/uL
same,RBC,[8],764.6 x10_4/ul
same,Ret,[8],2.6%
same,WBC,[8],141.5 x10_2/uL
same,KIDNEY_L,[6],1.1 g
same,KIDNEY_R,[6],1.1 g
same,KIDNEY_TOTAL,[6],2.1 g
same,KIDNEY_L,[7],1.3 g
same,KIDNEY_R,[7],1.3 g
same,KIDNEY_TOTAL,[7],2.6 g
same,KIDNEY_L,[8],1.3 g
same,KIDNEY_R,[8],1.3 g
same,KIDNEY_TOTAL,[8],2.6 g
same,LIVER,[6],11.8 g
same,LIVER,[7],14.1 g
same,LIVER,[8],14.2 g
same,ALP,[6],1555.8 IU/L
same,ALT,[6],40.4 IU/L
same,AST,[6],64.8 IU/L
same,CRE,[6],0.2 mg/dL
same,DBIL,[6],0 mg/dL
same,GLC,[6],184.6 mg/dL
same,IP,[6],7 mg/dL
same,K,[6],4.4 meq/L
same,LDH,[6],169.2 IU/L
same,Na,[6],141.8 meq/L
same,PL,[6],148.2 mg/dL
same,RALB,[6],3 g/dL
same,TBIL,[6],0.034 mg/dL
same,TC,[6],73.6 mg/dL
same,TG,[6],108 mg/dL
same,TP,[6],5.6 g/dL
same,gamma-GTP,[6],1.2 IU/L
same,ALP,[7],1361 IU/L
same,ALT,[7],40.4 IU/L
same,AST,[7],63.2 IU/L
same,CRE,[7],0.2 mg/dL
same,DBIL,[7],0.008 mg/dL
same,GLC,[7],186.8 mg/dL
same,IP,[7],7.6 mg/dL
same,K,[7],4.2 meq/L
same,LDH,[7],176.6 IU/L
same,Na,[7],142.6 meq/L
same,PL,[7],152.4 mg/dL
same,RALB,[7],3.1 g/dL
same,TBIL,[7],0.012 mg/dL
same,TC,[7],74.2 mg/dL
same,TG,[7],129.6 mg/dL
same,TP,[7],5.5 g/dL
same,gamma-GTP,[7],1.2 IU/L
same,ALP,[8],1279.2 IU/L
same,ALT,[8],41 IU/L
same,AST,[8],64.4 IU/L
same,CRE,[8],0.2 mg/dL
same,DBIL,[8],0.004 mg/dL
same,GLC,[8],181.2 mg/dL
same,IP,[8],5.8 mg/dL
same,K,[8],3.9 meq/L
same,LDH,[8],231.2 IU/L
same,Na,[8],143.4 meq/L
same,PL,[8],131.6 mg/dL
same,RALB,[8],3.1 g/dL
same,TBIL,[8],0.028 mg/dL
same,TC,[8],66.6 mg/dL
same,TG,[8],107.4 mg/dL
same,TP,[8],6.1 g/dL
same,gamma-GTP,[8],1.4 IU/L
